According to paper PMC6832239, “The Effects of a Novel Series of KTTKS Analogues on Cytotoxicity and Proteolytic Activity” (Molecules, 2019):
“Also recorded” adds a separate entry of the source. Read-outs that look alike come from different tables or passages of the source. Residues, ends and D or L forms follow the SMILES beside them.

Assays:
[1] = test system: collagen biosynthesis; set-up: method as in PMID 24090916; conditions: single concentration of 0.5 mM; cited from earlier work
[2] = molecular target: T1, plasmin (Homo sapiens, UniProt P00747); test: Amidolytic activity of plasmin (chromogenic substrate H-D-Val-Leu-Lys-pNA); type: biochemical
T1 construct: purchased Chromogenix (Milano, Italy)
T1 sequence (P00747 581-810 limits assumed): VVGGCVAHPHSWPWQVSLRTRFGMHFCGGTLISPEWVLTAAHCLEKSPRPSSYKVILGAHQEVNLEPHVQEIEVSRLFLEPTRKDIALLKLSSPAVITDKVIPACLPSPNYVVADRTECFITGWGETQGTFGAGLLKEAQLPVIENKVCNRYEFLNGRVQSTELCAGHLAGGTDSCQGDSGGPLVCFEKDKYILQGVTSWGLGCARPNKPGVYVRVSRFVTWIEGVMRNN
T1 sequence (P00747 97-580 partner limits assumed): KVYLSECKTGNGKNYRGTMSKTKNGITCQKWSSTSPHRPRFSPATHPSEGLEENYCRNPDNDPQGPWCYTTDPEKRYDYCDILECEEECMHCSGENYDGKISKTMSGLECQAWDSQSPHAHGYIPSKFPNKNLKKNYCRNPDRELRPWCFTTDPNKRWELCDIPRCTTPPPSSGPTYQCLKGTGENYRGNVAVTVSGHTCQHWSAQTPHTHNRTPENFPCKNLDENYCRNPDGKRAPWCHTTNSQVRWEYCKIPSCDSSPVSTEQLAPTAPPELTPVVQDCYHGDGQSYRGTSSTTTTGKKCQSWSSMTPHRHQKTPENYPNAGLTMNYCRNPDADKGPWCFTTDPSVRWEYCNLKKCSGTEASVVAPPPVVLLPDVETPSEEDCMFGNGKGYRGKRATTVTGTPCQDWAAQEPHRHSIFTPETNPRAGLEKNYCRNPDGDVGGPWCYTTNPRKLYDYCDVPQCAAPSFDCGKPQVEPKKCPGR
Protocol: (§1) The determination of amidolytic activity was performed as previously described by Okada. A detailed description of the method is given below: 0.2 mL of the examined peptides (0.15 M NaCl as contro), a buffer, and 0.1 mL of enzyme solution were mixed. The final peptide concentrations were: 0.2 mM, 2 mM, and 20 mM. The mixture was incubated at 37 °C for 3 min; then the synthetic substrate solution was added in the same buffer. After 20 min of incubation, the reaction was stopped by adding 0.1 mL of 50% acetic acid and the absorbance of the released p-nitroaniline was measured at 405 nm. The mean values from three independent experiments done in duplicate are presented. A method error of 5% was adopted as statistical error. IC50 value was considered as the concentration of inhibitor that reduces absorbance by 50%, compared with absorbance measured under the same conditions without an inhibitor. IC50 was calculated mathematically by extrapolation using a linear plot. IC50 values are presented in Table 1 and Table 2, and graphically in Figure 1.
(§2) The buffers and the enzyme solutions included: • Tris buffer—0.6 mL (pH 8.8), enzyme: urokinase (50 units/mL), synthetic substrate: pyro-Glu-Gly-Arg-pNA·HCl (0.1 mL, 3 mM); • Tris buffer—0.5 mL (pH 8.4), enzyme: thrombin (1 units/mL), synthetic substrate: H-D-Phe-Pip-Arg-pNA (0.2 mL, 0.75 mM); • Tris buffer—0.5 mL (pH 7.4), enzyme: plasmin (0.4 units/mL), synthetic substrate: H-D-Val-Leu-Lys-pNA (0.2 mL, 3 mM); • Borate buffer—0.5 mL (pH 7.5), enzyme: trypsin (0.4 units/mL), synthetic substrate: Bzl-L-Arg-pNA·HCl (0.2 mL, 8 mM); • Tris buffer—0.6 mL (pH 9.0), enzyme: kallikrein (3 units/mL), synthetic substrate: H-D-Val-Leu-Arg-pNA·2HCl (0.1 mL, 75 mM); • Tris buffer—0.6 mL (pH 8.4), enzyme: t-PA ([…]), synthetic substrate: H-D-Ile-Pro-Arg-pNA (0.1 mL, 10 mM) • Tris buffer—0.6 mL (pH 9.0), enzyme: chymotrypsin (0.4 units/mL), synthetic substrate: Suc-Phe-pNA (0.2 mL, 8 mM)

[3] = test system: primary dermal fibroblasts cells; test: Viability of fibroblast cells, MTT assay; type: cell-based, Human; conditions: MTT, 1-100 μM, 24 h
Protocol: (§3) Viability of fibroblast cells was examined with the use of the MTT assay. MTT, a yellow tetrazole, is reduced to purple formazan only in living cells. Absorbance of the coloured solution was measured by a spectrophotometer.
(§4) These studies were performed on primary dermal fibroblasts cells. The cells were maintained in DMEM supplemented with 10% fetal bovine serum (FBS), 2 mM glutamin, 50 U/mL penicillin and […] streptomycin at 37 °C in a 5% CO2 incubator. For experiments, cells cultures were plated at a density of 1 × 10^6/well in six-well culture plates (Costar, St. Louis, MO, USA) in 2 mL of growth medium. Cells reached about 80% of confluency at day 2 were used for the assays.
(§5) Toxicity of the tested substances was determined using an MTT [3-(4,5-dimethylthiazol-2-yl)-2,5-diphenyltetrazolium bromide)] assay. Palmitoyl and lipoyl peptides were dissolved in DMSO (dimethyl sulfoxide), the other peptides in DMEM, and added to the cell culture medium. Simultaneously, the same concentrations of DMSO without peptides were added to cells, serving as controls. The final peptide concentrations were: 1 μM, 10 μM, and 100 μM. After 24 h incubation, the cells cultured with the tested compounds were washed with phosphate-buffered saline (PBS) and then incubated for 4 h in 2 mL of MTT solution (5 mg/mL). After removing the medium, the cells were lysed in 200 μL of DMSO with 20 μL of Sorensen’s buffer (pH 10.5, 0.1 mol/L glycine with 0.1 mol/L NaCl). The absorbance of converted dye in living cells was measured at a wavelength of 570 nm. The mean values ± SD from three independent experiments done in duplicate are presented.

[4] = Viability of fibroblast cells, MTT assay; type: cell-based, Human; conditions: human, primary dermal fibroblast cells, 24 h, MTT, ± 2, read-out: Viability of fibroblast cells
Protocol: as §3, §4, §5

[5] = molecular target: T2, thrombin (Bos taurus, UniProt P00735); test: Amidolytic activity of thrombin (chromogenic substrate H-D-Phe-Pip-Arg-pNA); type: biochemical; conditions: amidolytic activity; Tris pH 8.4, 37 °C; IC50 by extrapolation using a linear plot; error 5%; read-out: IC50 Thrombin
T2 construct: purchased Lubelska Wytwórnia Szczepionek (Lublin, Poland)
Protocol: The determination of amidolytic activity was performed as previously described by Okada. A detailed description of the method is given below: 0.2 mL of the examined peptides (0.15 M NaCl as contro), a buffer, and 0.1 mL of enzyme solution were mixed. The final peptide concentrations were: 0.2 mM, 2 mM, and 20 mM. The mixture was incubated at 37 °C for 3 min; then the synthetic substrate solution was added in the same buffer. […] The mean values from three independent experiments done in duplicate are presented. A method error of 5% was adopted as statistical error. […] IC50 was calculated mathematically by extrapolation using a linear plot.

[6] = test system: kallikrein 5; set-up: method as in PMID 27434836; conditions: selectivity; cited from earlier work
[7] = test system: kallikrein 7; set-up: method as in PMID 27434836; conditions: selectivity; cited from earlier work
[8] = molecular target: T1, plasmin; set-up: method as in PMID 27434836; conditions: competitive and reversible inhibitor; cited from earlier work
[9] = molecular target: T3, urokinase (Homo sapiens, UniProt P00749); set-up: method as in PMID 27434836; conditions: competitive and reversible inhibitor; cited from earlier work
T3 construct: purchased Sigma (Schnelldorf, Germany)

[10] = test system: tryptase; set-up: method as in PMID 27434836; conditions: selectivity; cited from earlier work
[11] = test system: neutrophil elastase; set-up: method as in PMID 27434836; conditions: selectivity; cited from earlier work
[12] = test system: collagen synthesis; set-up: method as in PMID 19268583; conditions: cited from earlier work
[13] = test system: face wrinkles; set-up: method as in PMID 19570099; conditions: oil-in-water cream twice daily for 8 and 12 weeks; cited from earlier work
[14] = test system: human dermal fibroblasts; set-up: method as in PMID 23320752; conditions: cited from earlier work
[15] = set-up: method as in PMID 25143811; conditions: stratum corneum, epidermis, dermis; cited from earlier work
[16] = test system: Fibroblasts; test: Collagen biosynthesis, 5[3H]-proline incorporation in fibroblasts; type: cell-based, Human; conditions: 24 h, ± 2
Protocol: In collagen biosynthesis assays cells were counted in a haemocytometer and incorporation of a radioactive precursor 5[^3H]-proline into collagen was measured. Total protein synthesis was calculated from the sum of radioactivity of collagenase-resistant proteins and collagen digest.
Fibroblasts were cultured in six-well plates until confluence. Then they were incubated for 24 h in growth medium in the absence or presence of the tested peptides and 5[^3H]-proline (5 µCi/mL, 28 Ci/mM). The final peptide concentrations were: 10 μM, 50 μM and 100 μM. In accordance with the method proposed by Peterkofsky and Diegelmann, incorporation of the radioactive precursor into collagen was determined by digesting the proteins with purified Clostridium histolyticum collagenase. Finally, the monolayers were washed with sterile 10mM PBS, pH 7.4 four times, and cell membranes were disrupted using a sonicator. Aliquots of the cell homogenate were removed for protein measurement using the BCA™ Protein Assay Kit (Pierce, Waltham, MA USA). The results are shown as combined values for cell plus medium fractions.

[17] = molecular target: T3, urokinase; test: Amidolytic activity of urokinase (chromogenic substrate pyro-Glu-Gly-Arg-pNA); type: biochemical; conditions: amidolytic activity; Tris pH 8.8, 37 °C; IC50 by extrapolation using a linear plot; error 5%; read-out: IC50 Urokinase
Protocol: as §1, §2

[18] = test system: fibroblast cells; test: DNA biosynthesis, [3H] thymidine incorporation in fibroblasts; type: cell-based, Human; conditions: for DNA biosynthesis: 24 h, ± 2
Protocol: In the radioactive method of DNA measurement in the liquid sample, the radioactive activity of the sample was measured. This technique involves mixing a radioactive material with a scintillation fluid/liquid (which contains a scintillator), resulting in photon emission. This emission is counted by a suitable detector.
To examine the effect of the studied compounds on DNA biosynthesis of fibroblast cells, they were plated in 24-well tissue culture dishes at 1 × 10^5 cells per well with 1 mL of growth medium. The plates were incubated after 48 h with the examined peptides and 0.5 μCi of [^3H] thymidine (6.7 Ci/mmol) at 37 °C. The final peptide concentrations were: 10 μM, 50 μM, and 100 μM. After 24 h incubation, the cells were rinsed with PBS three times and twice with 5% trichloroacetic acid. To measure the radioactivity incorporated into DNA, the cells were solubilized with 1 mL of 0.1 M sodium hydroxide containing 1% SDS and an addition of scintillation liquid (9 mL) (https://www.perkinelmer.com/pl/category/scintillation-cocktails). Radioactivity was determined in a scintillation counter, i.e., Liquid Scintillation Analyzer Tri-Carb 2810 TR (Perkin Elmer, Waltham, MA USA)) with Quanto Smart TM software (Perkin Elmer).

[19] = amidolytic activity, Tris pH 7.4, 37 °C, IC50 by extrapolation using a linear plot, error 5%, read-out: IC50 Plasmin

| IC50 [2, 19] [µM] | IC50 [5] [µM] | IC50 [17] [µM] | Molecule | cytotoxicity / cell growth effect on fibroblasts [3] | viability at 24 h, 1 µmol/L [4] [%] | viability at 24 h, 10 µmol/L [4] [%] | viability at 24 h, 100 µmol/L [4] [%] | increase of collagen synthesis [12] | Collagen biosynthesis ([16]; 50 µmol/L) | Collagen biosynthesis ([16]; 100 µmol/L) | DNA biosynthesis ([18]; 10 µmol/L) | DNA biosynthesis ([18]; 50 µmol/L) | DNA biosynthesis ([18]; 100 µmol/L) | further results |
| --- | --- | --- | --- | --- | --- | --- | --- | --- | --- | --- | --- | --- | --- | --- |
| 470 ± 23 | 12800 ± 640 |  | C[C@@H](O)[C@H](NC(=O)[C@H](CCCCN)NC(=O)CCCCC1CCSS1)C(=O)N[C@H](C(=O)N[C@@H](CCCCN)C(=O)N[C@@H](CO)C(=O)O)[C@@H](C)O (mixture of isomers) [Peptide 3, Lip-Lys-Thr-Thr-Lys-Ser-OH] | did not exhibit fibroblast growth | 94 | 81 | 81 |  |  |  |  |  |  | increase of collagen biosynthesis [1]: over 150% |
|  |  |  | N=C(N)c1ccc(CNC(=O)C(CCc2ccccc2)NC(=O)[C@@H](CO)NS(=O)(=O)Cc2ccccc2)cc1 (stereo partly drawn) [BSFAB, benzylsulfonyl-D-Ser-homoPhe-(4-amidinobenzylamide)] |  |  |  |  |  |  |  |  |  |  | inhibition of kallikrein 5 [6]: did not inhibit; inhibition of kallikrein 7 [7]: did not inhibit; Ki [8]: 0.029 µM; Ki [9]: 0.025 µM; inhibition of tryptase [10]: did not inhibit; inhibition of neutrophil elastase [11]: did not inhibit |
|  |  |  | CCCCCCCCCCCCCCCC(=O)N[C@@H](CCCCN)C(=O)N[C@H](C(=O)N[C@H](C(=O)N[C@@H](CCCCN)C(=O)N[C@@H](CO)C(=O)O)[C@@H](C)O)[C@@H](C)O [Peptide 4, Pal-Lys-Thr-Thr-Lys-Ser-OH, reference compound] (HELM PEPTIDE1{[CCCCCCCCCCCCCCCC(=O)[*:2]].K.T.T.K.S}$$$$V2.0) | did not exhibit fibroblast growth | 97 | 91 | 85 | over 150% |  |  |  |  |  | length of wrinkles, age spots, skin texture versus placebo cream [13]: markedly improved; collagen production [14]: stimulates collagen production in a concentration-dependent manner; retention in skin layers [15]: retained in different skin layers |
| 5450 ± 270 | 810 ± 41 | 2360 ± 120 | Ac-RTTKS-OH [Peptide 26, Ac-Arg-Thr-Thr-Lys-Ser-OH] | exhibited cell growth effects; also recorded: showed proliferative effect; also recorded: exhibited the effect of cell growth | 112 | 137 | 150 |  | 77 % of Control | 108 % of Control | 126 % of Control | 112 % of Control | 128 % of Control | Collagen biosynthesis ([16]; 10 µmol/L): 166 % of Control; DNA synthesis ([18]; 10, 50, 100 μM): increased DNA synthesis was observed at all concentrations |
| 280 ± 14 | 7810 ± 390 |  | H-KTTKS-OH [Peptide 1, H-Lys-Thr-Thr-Lys-Ser-OH, reference compound] | did not exhibit fibroblast growth | 95 | 82 | 80 | no such effect |  |  |  |  |  |  |
| 720 ± 36 | 4650 ± 233 | 17600 ± 880 | H-KTTRS-NH2 [Peptide 13, H-Lys-Thr-Thr-Arg-Ser-NH2] | exhibited cell growth effects; also recorded: showed proliferative effect; also recorded: exhibited the effect of cell growth | 121 | 139 | 145 |  | 155 % of Control | 49 % of Control | 84 % of Control | 86 % of Control | 74 % of Control | IC50 ([2]; converted from IC50 of Table 1, read-out: -logIC50 Plasmin (converted)): 708 µM |
